{"source": "patent US7084141B2", "about": "“Inhibitors of macrophase migration inhibitory factor and methods for identifying the same” (Avanir Pharmaceuticals, priority 2001, dated 2006)", "system": "serum MIF", "assay": "Serum MIF after LPS/galactosamine challenge in mice (ELISA)", "format": "in vivo, mouse", "description": "Doses of lipopolysacchraride (LPS) were made fresh prior to each experiment. LPS (Escherichia Coli 0111:B4, Sigma) was reconstituted by adding 0.5% TEA (1 ml USP water+[…] Triethylamine (Pierce)) to a vial of 5 mg endotoxin. Once reconstituted, the solution was incubated at 37° C. for 30 minutes. Subsequently, the solution was sonicated in a 56–60° C. bath sonicator for 30 seconds 3 times. Following sonication the mixture was vortexed for 3 minutes continuously. The stock solution of LPS was then ready for use.\nTen 10-week-old (20±2 gram) female BALB/c mice (Charles River Laboratories, Kingston, N.Y.) were housed in a group of 5 per cage with free access to food and water and were acclimatized for at least one week prior to experimentation. On the day of experiment, mice were weighed and randomly distributed into group of 10 animals of equal mean body weight. […] Mouse serum Il-1β and TNF-α were measured by ELISA using a “mouse IL 1β immunoassay or mouse TNF-α immunoassay” kits (R&D System Minneapolis, Minn.) following manufacturer's direction. Serum MIF concentrations in mouse serum were quantified by a sandwich ELISA (ChemiKine MIF Kit, Chemicon, San Diego, Calif.). Samples were analyzed in duplicate, and results were averaged. […]"}
{"compound": "Cn1c(=O)c([N+](=O)[O-])c(N2CCN(C(=O)c3ccco3)CC2)c2ccccc21", "note": "[compound 7e]", "values": [{"measurement": "decrease in serum MIF", "setting": "5 mg/kg LPS, four hours following treatment, p=0.0003", "value": 60, "unit": "%"}, {"measurement": "level of circulating MIF", "setting": "10 mg/kg LPS, 20 mg/kg i.p., p=0.05", "value": "significant decrease in the level of circulating MIF"}]}
